Active and inactive are the calls of the source. No rule for the calls is given here.
System: CCRIS mutagenicity, Ames/micronucleus/aberration tests
Assay: CCRIS mutagenicity studies
Details: Test System: AMES SALMONELLA TYPHIMURIUM
[1] = Strain/Indicator: TA98, Metabolic Activation: NONE, Method: PREINCUBATION
[2] = Strain/Indicator: TA100, Metabolic Activation: NONE, Method: PREINCUBATION
[3] = Strain/Indicator: TA98, Metabolic Activation: NONE, Method: STANDARD PLATE
[4] = Strain/Indicator: TA98, Metabolic Activation: RAT, LIVER, S-9, AROCLOR 1254, Method: STANDARD PLATE
[5] = Strain/Indicator: TA100, Metabolic Activation: NONE, Method: STANDARD PLATE
[6] = Strain/Indicator: TA100, Metabolic Activation: RAT, LIVER, S-9, AROCLOR 1254, Method: STANDARD PLATE
[7] = Strain/Indicator: TA1537, Metabolic Activation: NONE, Method: STANDARD PLATE
[8] = Strain/Indicator: TA1537, Metabolic Activation: RAT, LIVER, S-9, AROCLOR 1254, Method: STANDARD PLATE
[9] = Strain/Indicator: TA98, Metabolic Activation: HAMSTER, LIVER, S-9, AROCLOR 1254 (10%), Method: PREINCUBATION
[10] = Strain/Indicator: TA98, Metabolic Activation: RAT, LIVER, S-9, AROCLOR 1254 (10%), Method: PREINCUBATION
[11] = Strain/Indicator: TA100, Metabolic Activation: HAMSTER, LIVER, S-9, AROCLOR 1254 (10%), Method: PREINCUBATION
[12] = Strain/Indicator: TA100, Metabolic Activation: RAT, LIVER, S-9, AROCLOR 1254 (10%), Method: PREINCUBATION
[13] = Strain/Indicator: TA1535, Metabolic Activation: HAMSTER, LIVER, S-9, AROCLOR 1254 (10%), Method: PREINCUBATION
[14] = Strain/Indicator: TA1535, Metabolic Activation: NONE, Method: PREINCUBATION
[15] = Strain/Indicator: TA1535, Metabolic Activation: RAT, LIVER, S-9, AROCLOR 1254 (10%), Method: PREINCUBATION
[16] = Strain/Indicator: TA1537, Metabolic Activation: HAMSTER, LIVER, S-9, AROCLOR 1254 (10%), Method: PREINCUBATION
[17] = Strain/Indicator: TA1537, Metabolic Activation: NONE, Method: PREINCUBATION
[18] = Strain/Indicator: TA1537, Metabolic Activation: RAT, LIVER, S-9, AROCLOR 1254 (10%), Method: PREINCUBATION

Row | Structure (SMILES) | mutagenic call [1] | mutagenic call [2] | mutagenic call [3] | mutagenic call [4] | mutagenic call [5] | mutagenic call [6] | mutagenic call [7] | mutagenic call [8] | mutagenic call [9] | mutagenic call [10] | mutagenic call [11] | mutagenic call [12] | mutagenic call [13] | mutagenic call [14] | mutagenic call [15] | mutagenic call [16] | mutagenic call [17] | mutagenic call [18] | other results
1 | O=[N+]([O-])c1ccc2c(c1)Oc1cc([N+](=O)[O-])ccc1O2 | active; positive | inactive; negative |  |  |  |  |  |  |  |  |  |  |  |  |  |  |  |  | mutagenic call (Strain/Indicator: TA98(1,8-DNP6), Metabolic Activation: NONE, Method: PREINCUBATION): active; positive; mutagenic call (Strain/Indicator: TA98(1,8-DNP6), Metabolic Activation: NONE, Method: SUSPENSION): active; positive; mutagenic call (Strain/Indicator: TA98(1,8-DNP6), Metabolic Activation: RAT, LIVER, S-9, PCB (5%), Method: PREINCUBATION): active; positive; mutagenic call (Strain/Indicator: TA98(NR), Metabolic Activation: NONE, Method: PREINCUBATION): inactive; negative; mutagenic call (Strain/Indicator: TA98(NR), Metabolic Activation: NONE, Method: SUSPENSION): inactive; negative; mutagenic call (Strain/Indicator: TA98(NR), Metabolic Activation: RAT, LIVER, S-9 (15%), Method: PREINCUBATION): active; positive; mutagenic call (Strain/Indicator: TA98(NR), Metabolic Activation: RAT, LIVER, S-9, 3-METHYLCHOLANTHRENE (15%), Method: PREINCUBATION): active; positive; mutagenic call (Strain/Indicator: TA98(NR), Metabolic Activation: RAT, LIVER, S-9, BETA-NAPHTHOFLAVONE (15%), Method: PREINCUBATION): active; positive; mutagenic call (Strain/Indicator: TA98(NR), Metabolic Activation: RAT, LIVER, S-9, PCB (5 OR 15%), Method: PREINCUBATION): active; positive; mutagenic call (Strain/Indicator: TA98(NR), Metabolic Activation: RAT, LIVER, S-9, PHENOBARBITAL (15%), Method: PREINCUBATION): active; positive; mutagenic call (Strain/Indicator: TA98, Metabolic Activation: NONE, Method: SUSPENSION): active; positive; mutagenic call (Strain/Indicator: TA98, Metabolic Activation: RAT, LIVER, S-9, PCB (5%), Method: PREINCUBATION): active; positive; mutagenic call (Strain/Indicator: TA98, Metabolic Activation: RAT, LIVER, S-9, PCB, Method: SUSPENSION): active; positive; mutagenic call (Strain/Indicator: TA100, Metabolic Activation: NONE, Method: SUSPENSION): inactive; negative; mutagenic call (Strain/Indicator: TA100, Metabolic Activation: RAT, LIVER, S-9, PCB (5%), Method: PREINCUBATION): inactive; negative; mutagenic call (Strain/Indicator: TA100, Metabolic Activation: RAT, LIVER, S-9, PCB, Method: SUSPENSION): active; positive
2 | Cc1ccc2c(c1)c(=NC(=O)CCCl)sn2C(=O)CCCl |  |  |  |  |  |  |  |  |  |  |  |  |  |  |  |  |  |  | mutagenic call (Strain/Indicator: TA100, Metabolic Activation: S-9, Method: STANDARD PLATE): inactive; negative
3 | CC(C)(C)OC(=O)O/N=C(/C#N)c1ccccc1 |  |  | inactive; negative | inactive; negative | inactive; negative | inactive; negative | inactive; negative | inactive; negative |  |  |  |  |  |  |  |  |  |  | mutagenic call (Strain/Indicator: TA1535, Metabolic Activation: NONE, Method: STANDARD PLATE): inactive; negative; mutagenic call (Strain/Indicator: TA1535, Metabolic Activation: RAT, LIVER, S-9, AROCLOR 1254, Method: STANDARD PLATE): inactive; negative
4 | O=C1CSC(=S)N1 | inactive; negative | inactive; negative |  |  |  |  |  |  | inactive; negative | inactive; negative | inactive; negative | inactive; negative | inactive; negative | inactive; negative | inactive; negative | inactive; negative | inactive; negative | inactive; negative | 
5 | O=[N+]([O-])c1ccccc1CCO | inactive; negative | inactive; negative |  |  |  |  |  |  | inactive; negative | inactive; negative | inactive; negative | inactive; negative | inactive; negative | inactive; negative | inactive; negative | inactive; negative | inactive; negative | inactive; negative | mutagenic call (Strain/Indicator: TA98, Metabolic Activation: HAMSTER, LIVER, S-9, AROCLOR 1254 (30%), Method: PREINCUBATION): inactive; negative; mutagenic call (Strain/Indicator: TA98, Metabolic Activation: RAT, LIVER, S-9, AROCLOR 1254 (30%), Method: PREINCUBATION): inactive; negative; mutagenic call (Strain/Indicator: TA100, Metabolic Activation: HAMSTER, LIVER, S-9, AROCLOR 1254 (30%), Method: PREINCUBATION): active; positive; mutagenic call (Strain/Indicator: TA100, Metabolic Activation: RAT, LIVER, S-9, AROCLOR 1254 (5%), Method: PREINCUBATION): inactive; negative; mutagenic call (Strain/Indicator: TA100, Metabolic Activation: RAT, LIVER, S-9, AROCLOR 1254 (30%), Method: PREINCUBATION): inactive; negative
6 | C1CCC2OCCOCCOCCOCCOC3CCCCC3OCCOCCOCCOCCOC2C1 (centres undefined) |  |  | inactive; negative | inactive; negative | inactive; negative | inactive; negative | inactive; negative | inactive; negative |  |  |  |  |  |  |  |  |  |  | mutagenic call (Strain/Indicator: TA1530, Metabolic Activation: NONE, Method: STANDARD PLATE): inactive; negative; mutagenic call (Strain/Indicator: TA1530, Metabolic Activation: RAT, LIVER, S-9, AROCLOR 1254, Method: STANDARD PLATE): inactive; negative
